Here are results for one compound from paper PMC11229439 (GeroScience, 2023).

The experiment addresses T1, cystathionine γ-lyase (CGL) (Rattus norvegicus, UniProt P18757).
T1 construct: gene Cth
In words: homoserine γ-elimination assay (2-oxobutanoate), Dixon plot. Type of experiment: biochemical.

T1 sequence (P18757 whole entry): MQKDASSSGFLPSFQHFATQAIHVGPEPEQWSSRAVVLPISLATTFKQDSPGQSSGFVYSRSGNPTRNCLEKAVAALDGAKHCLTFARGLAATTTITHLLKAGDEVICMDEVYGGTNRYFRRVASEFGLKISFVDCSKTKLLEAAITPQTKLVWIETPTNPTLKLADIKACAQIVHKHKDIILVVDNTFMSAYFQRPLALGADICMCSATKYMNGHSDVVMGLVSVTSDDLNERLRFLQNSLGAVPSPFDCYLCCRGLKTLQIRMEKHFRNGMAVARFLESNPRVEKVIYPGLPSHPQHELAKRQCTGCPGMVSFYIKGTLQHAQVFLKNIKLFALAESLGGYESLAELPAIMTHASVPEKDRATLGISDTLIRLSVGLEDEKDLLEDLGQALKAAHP

`N[C@@H](CS)C(=O)O` [cysteine]: the Ki (usually the dissociation constant of the complex between target and ligand, obtained from inhibition or displacement) amounted to 520 µM.
